Data published in ChEMBL document CHEMBL1201862, “PubChem BioAssay data set” (2004).
Blank lines part the entries; values can stand above or below the molecule they belong to. Active and inactive are the calls of the source.

What was measured:
[1] = target: Glutathione S-transferase omega-1 (Homo sapiens, UniProt P78417); experiment: GSTO1 inhibitor potency, recombinant enzyme, late-stage follow-up, biochemical, SE-Rh probe, in-gel fluorescence, powder samples, set 2 (AID 463142); type: functional
[2] = target: Acyl-homoserine lactone acylase PvdQ (Pseudomonas aeruginosa (strain LESB58), UniProt Q9I194); experiment: P. aeruginosa PvdQ acylase inhibitors, dose response, biochemical, fluorescence, plate reader and imaging, cherry-picks (AID 493231)
[3] = target: T1, Ubiquitin-conjugating enzyme E2 N (Homo sapiens, UniProt P61088); type: functional;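 also: Dose-response confirmation in a TR-FRET assay detecting UBC13-driven polyubiquitin chain formation, inhibition measured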
T1 sequence (P61088 whole entry): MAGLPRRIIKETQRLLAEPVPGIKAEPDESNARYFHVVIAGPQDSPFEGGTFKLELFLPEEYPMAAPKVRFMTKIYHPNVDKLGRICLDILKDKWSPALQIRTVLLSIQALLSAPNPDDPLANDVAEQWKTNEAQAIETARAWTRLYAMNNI

Protein skinhead-1 = target: T2, Protein skinhead-1 (Caenorhabditis elegans, UniProt P34707); type: functional
T2 sequence (P34707 whole entry): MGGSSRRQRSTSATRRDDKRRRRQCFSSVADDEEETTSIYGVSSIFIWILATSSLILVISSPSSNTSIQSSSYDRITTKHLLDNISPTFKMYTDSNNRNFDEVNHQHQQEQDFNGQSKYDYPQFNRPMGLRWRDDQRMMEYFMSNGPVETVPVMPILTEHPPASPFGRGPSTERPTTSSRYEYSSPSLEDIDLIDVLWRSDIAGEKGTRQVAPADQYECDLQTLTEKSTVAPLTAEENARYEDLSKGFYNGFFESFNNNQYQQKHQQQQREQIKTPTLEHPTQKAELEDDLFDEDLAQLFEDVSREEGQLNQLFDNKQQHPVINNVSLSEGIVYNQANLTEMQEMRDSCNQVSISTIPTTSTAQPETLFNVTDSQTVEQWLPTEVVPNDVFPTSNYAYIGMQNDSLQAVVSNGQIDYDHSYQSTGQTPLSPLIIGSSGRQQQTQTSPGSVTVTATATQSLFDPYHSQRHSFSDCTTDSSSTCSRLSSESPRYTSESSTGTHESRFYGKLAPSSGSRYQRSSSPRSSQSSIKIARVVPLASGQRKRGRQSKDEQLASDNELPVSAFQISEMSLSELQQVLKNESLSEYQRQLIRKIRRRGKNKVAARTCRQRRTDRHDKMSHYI

[4] = target: Potassium voltage-gated channel subfamily KQT member 2 (Rattus norvegicus, UniProt O88943); experiment: retigabine-insensitive KCNQ2 potentiators, concentration-response, dose response, cell-based, retigabine-insensitive compounds (AID 2654); type: functional
[5] = target: G-protein coupled receptor 55 (Homo sapiens, UniProt Q9Y2T6); experiment: GPR55 agonists via beta-arrestin recruitment, primary screen, imaging, U2OS cells, beta-arrestin-GFP redistribution (AID 1961); type: functional
[6] = growth suppression of PTEN-null colon cells, dose response, cell-based, HCT116 PTEN knockout (AID 1047); type: functional;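 also: HCT116 colon tumor cells with PTEN knocked out; cells exposed to compound for 60 hours before readout; potency for loss of cell viability measured by luminescence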
[7] = growth suppression of beta-catenin-knockout colon cells, dose response, cell-based, HCT116, human colon tumor (AID 1045); type: functional;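 also: HCT116 colon tumor cells with beta catenin knocked out; cells exposed to compound for 60 hours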
[8] = target: Scavenger receptor class B member 1 (Mus musculus, UniProt Q61009); experiment: inhibitors of SR-BI mediated HDL lipid uptake, dose response, ldlA[mSR-BI] cells, fluorescence, cherry pick (AID 493194); type: functional, cell-based;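 also: cellular uptake of fluorescent DiI-labeled HDL measured as cell fluorescence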
[9] = target: T3, Histone-lysine N-methyltransferase NSD2 (Homo sapiens, UniProt O96028); type: biochemical
T3 sequence (O96028 whole entry): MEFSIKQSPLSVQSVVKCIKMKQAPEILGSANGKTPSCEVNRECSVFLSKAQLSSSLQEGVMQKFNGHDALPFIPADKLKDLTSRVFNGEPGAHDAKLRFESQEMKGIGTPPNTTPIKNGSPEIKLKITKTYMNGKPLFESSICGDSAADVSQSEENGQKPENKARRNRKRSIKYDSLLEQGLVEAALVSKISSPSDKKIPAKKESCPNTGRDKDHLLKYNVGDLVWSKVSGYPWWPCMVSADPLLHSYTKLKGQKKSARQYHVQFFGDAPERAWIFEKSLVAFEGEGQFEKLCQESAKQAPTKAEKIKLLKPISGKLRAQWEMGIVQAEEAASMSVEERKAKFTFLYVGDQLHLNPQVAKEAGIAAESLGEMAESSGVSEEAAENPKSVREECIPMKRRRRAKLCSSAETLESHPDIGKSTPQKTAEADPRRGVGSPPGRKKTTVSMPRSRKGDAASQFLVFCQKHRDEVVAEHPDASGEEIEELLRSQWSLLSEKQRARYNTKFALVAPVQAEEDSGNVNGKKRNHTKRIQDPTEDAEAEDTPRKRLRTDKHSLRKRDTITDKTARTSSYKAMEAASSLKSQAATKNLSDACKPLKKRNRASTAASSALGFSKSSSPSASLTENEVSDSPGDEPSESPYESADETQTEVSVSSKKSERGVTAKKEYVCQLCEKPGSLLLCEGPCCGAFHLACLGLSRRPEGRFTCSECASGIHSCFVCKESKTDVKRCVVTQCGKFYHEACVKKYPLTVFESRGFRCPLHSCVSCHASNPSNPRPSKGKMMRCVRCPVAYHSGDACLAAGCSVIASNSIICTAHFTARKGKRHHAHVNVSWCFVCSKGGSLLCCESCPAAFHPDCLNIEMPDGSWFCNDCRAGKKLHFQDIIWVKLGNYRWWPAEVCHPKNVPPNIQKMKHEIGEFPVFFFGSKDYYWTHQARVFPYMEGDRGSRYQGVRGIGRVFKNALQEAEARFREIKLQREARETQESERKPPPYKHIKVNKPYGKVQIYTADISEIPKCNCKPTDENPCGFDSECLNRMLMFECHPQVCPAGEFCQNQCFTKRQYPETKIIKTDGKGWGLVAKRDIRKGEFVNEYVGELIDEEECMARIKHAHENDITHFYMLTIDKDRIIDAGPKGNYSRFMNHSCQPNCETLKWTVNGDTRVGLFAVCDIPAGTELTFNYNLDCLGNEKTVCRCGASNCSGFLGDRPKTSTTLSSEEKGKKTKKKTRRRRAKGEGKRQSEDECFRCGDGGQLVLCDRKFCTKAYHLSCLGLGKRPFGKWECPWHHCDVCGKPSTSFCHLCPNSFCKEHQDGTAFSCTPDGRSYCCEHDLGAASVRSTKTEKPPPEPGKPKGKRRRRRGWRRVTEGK

ORF 73 = ORF 73 (Human herpesvirus 8, UniProt O40947); experiment: inhibitors of C-LANA binding to LBS DNA, dose response, biochemical, fluorescence polarization, cherry-picked samples (AID 504725); set-up: species or system Human gammaherpesvirus 8;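 also: fluorescence polarization of a labeled DNA duplex reporting LANA DNA binding; potency is for inhibitors that block LANA binding to the DNA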
Sequence of ORF 73 (O40947 whole entry): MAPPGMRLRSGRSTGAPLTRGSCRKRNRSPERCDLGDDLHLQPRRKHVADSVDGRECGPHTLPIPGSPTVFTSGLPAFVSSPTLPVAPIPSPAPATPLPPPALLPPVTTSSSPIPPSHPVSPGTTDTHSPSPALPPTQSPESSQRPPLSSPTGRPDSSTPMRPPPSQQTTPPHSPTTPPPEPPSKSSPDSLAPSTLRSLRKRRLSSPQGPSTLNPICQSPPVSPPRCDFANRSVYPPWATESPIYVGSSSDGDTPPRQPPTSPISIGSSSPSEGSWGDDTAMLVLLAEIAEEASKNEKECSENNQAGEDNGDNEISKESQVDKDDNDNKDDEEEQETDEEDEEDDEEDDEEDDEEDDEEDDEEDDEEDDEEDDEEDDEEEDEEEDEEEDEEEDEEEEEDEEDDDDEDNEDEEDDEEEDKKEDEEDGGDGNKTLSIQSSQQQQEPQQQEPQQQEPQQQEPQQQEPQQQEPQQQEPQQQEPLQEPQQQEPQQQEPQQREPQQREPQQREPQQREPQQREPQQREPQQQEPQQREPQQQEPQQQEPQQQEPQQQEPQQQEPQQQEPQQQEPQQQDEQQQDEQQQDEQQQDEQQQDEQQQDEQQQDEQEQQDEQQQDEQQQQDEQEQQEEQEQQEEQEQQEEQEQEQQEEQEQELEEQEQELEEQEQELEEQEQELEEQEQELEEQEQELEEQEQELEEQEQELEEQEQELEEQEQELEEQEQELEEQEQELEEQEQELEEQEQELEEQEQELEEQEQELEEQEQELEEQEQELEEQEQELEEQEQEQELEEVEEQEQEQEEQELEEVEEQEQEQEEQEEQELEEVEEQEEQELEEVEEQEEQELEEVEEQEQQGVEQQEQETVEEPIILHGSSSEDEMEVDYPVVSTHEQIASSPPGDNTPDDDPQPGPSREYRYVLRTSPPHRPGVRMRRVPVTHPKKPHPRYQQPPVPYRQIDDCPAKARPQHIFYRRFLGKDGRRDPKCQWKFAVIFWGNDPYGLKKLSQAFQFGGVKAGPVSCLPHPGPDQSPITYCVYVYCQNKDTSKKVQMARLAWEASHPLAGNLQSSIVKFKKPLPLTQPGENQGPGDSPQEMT

Sequence of Potassium voltage-gated channel subfamily KQT member 2 (O88943 whole entry): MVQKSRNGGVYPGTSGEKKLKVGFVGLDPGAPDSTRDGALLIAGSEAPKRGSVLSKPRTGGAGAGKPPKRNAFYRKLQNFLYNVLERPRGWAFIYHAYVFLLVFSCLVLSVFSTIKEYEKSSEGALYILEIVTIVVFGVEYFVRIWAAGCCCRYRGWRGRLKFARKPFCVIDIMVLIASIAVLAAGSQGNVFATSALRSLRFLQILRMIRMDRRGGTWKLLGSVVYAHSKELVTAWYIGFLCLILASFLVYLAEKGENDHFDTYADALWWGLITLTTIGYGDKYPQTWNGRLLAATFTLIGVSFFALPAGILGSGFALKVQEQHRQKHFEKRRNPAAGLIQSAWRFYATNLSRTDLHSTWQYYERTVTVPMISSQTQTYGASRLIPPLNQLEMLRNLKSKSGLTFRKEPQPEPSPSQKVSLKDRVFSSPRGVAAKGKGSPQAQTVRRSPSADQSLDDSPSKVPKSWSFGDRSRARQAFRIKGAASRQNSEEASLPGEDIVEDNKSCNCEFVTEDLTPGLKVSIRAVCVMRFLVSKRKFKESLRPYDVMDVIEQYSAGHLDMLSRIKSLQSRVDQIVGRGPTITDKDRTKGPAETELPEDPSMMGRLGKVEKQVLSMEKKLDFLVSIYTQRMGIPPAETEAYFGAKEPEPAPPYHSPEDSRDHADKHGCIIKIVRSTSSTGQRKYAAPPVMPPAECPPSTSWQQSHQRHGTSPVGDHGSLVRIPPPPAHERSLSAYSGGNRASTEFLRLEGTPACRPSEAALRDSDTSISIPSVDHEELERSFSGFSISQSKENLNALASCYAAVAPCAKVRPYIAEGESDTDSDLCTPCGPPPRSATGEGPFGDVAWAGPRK
Sequence of Glutathione S-transferase omega-1 (P78417 whole entry): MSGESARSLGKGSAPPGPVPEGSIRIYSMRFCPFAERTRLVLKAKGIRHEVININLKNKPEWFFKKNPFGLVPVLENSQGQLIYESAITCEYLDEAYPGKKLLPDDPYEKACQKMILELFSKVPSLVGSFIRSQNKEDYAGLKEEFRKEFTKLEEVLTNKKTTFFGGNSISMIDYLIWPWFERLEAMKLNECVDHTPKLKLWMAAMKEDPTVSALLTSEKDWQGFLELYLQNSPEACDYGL
Sequence of Acyl-homoserine lactone acylase PvdQ (Q9I194 24-193 limits assumed): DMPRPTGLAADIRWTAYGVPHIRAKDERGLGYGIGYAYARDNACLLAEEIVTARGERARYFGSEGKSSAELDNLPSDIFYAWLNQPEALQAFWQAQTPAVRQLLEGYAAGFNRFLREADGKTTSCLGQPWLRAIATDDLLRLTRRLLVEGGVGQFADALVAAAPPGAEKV
Sequence of Acyl-homoserine lactone acylase PvdQ (Q9I194 217-762 limits assumed): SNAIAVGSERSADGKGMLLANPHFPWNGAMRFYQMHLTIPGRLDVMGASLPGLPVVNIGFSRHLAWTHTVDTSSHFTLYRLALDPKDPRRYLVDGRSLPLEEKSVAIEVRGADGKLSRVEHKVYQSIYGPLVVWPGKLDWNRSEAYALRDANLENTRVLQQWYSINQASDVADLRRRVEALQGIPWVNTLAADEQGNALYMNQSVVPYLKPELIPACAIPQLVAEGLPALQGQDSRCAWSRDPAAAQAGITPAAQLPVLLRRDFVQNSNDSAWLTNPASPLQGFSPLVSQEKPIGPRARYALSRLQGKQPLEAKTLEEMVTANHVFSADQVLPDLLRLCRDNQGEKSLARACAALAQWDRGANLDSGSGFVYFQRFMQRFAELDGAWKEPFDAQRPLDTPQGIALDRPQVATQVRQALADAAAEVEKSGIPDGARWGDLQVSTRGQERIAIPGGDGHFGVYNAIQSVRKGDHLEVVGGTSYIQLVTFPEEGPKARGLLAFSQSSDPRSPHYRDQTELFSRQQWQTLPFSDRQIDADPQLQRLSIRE
Sequence of Scavenger receptor class B member 1 (Q61009 whole entry): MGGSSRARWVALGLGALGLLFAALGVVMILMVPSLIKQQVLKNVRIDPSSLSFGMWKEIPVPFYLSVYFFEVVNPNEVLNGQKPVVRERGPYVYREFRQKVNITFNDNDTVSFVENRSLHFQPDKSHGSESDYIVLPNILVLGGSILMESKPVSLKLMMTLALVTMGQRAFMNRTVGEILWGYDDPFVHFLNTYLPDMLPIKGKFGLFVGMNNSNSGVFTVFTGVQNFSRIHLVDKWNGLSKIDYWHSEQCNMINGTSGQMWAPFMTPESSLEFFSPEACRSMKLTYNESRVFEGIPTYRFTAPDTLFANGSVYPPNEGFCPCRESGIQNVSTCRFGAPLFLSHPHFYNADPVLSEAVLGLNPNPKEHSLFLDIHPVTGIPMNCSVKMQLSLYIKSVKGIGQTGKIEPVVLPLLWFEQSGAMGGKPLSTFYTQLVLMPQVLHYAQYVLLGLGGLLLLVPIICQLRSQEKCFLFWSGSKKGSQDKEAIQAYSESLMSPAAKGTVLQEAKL
Sequence of G-protein coupled receptor 55 (Q9Y2T6 whole entry): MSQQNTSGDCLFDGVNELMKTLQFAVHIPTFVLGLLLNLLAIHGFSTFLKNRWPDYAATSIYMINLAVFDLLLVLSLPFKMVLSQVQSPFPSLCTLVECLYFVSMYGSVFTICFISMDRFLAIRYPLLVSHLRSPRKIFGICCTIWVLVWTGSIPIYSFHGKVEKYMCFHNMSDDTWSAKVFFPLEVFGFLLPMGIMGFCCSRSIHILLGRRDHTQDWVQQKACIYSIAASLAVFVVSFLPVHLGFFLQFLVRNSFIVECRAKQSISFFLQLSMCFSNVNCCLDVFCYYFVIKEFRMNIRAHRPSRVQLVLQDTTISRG

SMILES: O=C(CCl)N(CCCCNC(=O)C(F)(F)F)c1ccc([N+](=O)[O-])cc1
IC50 [1]: 0.012 µM (active)

SMILES: Cc1cccn2c(=O)c(C=O)c(N3CCCCCC3)nc12
AC50 [2]: 24.8 µM (active) | IC50 [3]: > 20 µM (inactive) | IC50 (Protein skinhead-1): > 100 µM (inactive)

SMILES: COc1cc(C2CC(=O)c3c([nH]c(C(=O)OCCOC(C)C)c3C)C2)cc(OC)c1OC (stereo unspecified)
EC50 [6]: 38.4 µM (active) | EC50 [7]: 31 µM (active) | AC50 [8]: 18 µM (active)

Results, then the molecule that gave them:

EC50 [4]: 13.4 µM (active)
SMILES: Cc1ccc(NC(=O)Nc2cccnc2)cc1C

EC50 [5]: 13.7 µM (inactive)
SMILES: O=C(c1ccco1)N1CCN(c2ncnc3c2nnn3Cc2ccccc2Cl)CC1

AC50 [9]: 15.3 µM (active) | AC50 (ORF 73): 97.3 µM (active)
SMILES: NC(S)=NN=Cc1ccc(-c2ccc(S(=O)(=O)Nc3ncccn3)cc2)o1
